{"source": "patent US11260241B2", "about": "“Method of treating multiple sclerosis” (Wisconsin Alumni Research Foundation, priority 2010, dated 2022)", "assay_type_in_all_cases": "in vivo, C57BL/6 mice", "key": {"[1]": {"test_system": "EAE", "assay": "EAE model of MS induced with MOG35-55, daily clinical scoring", "conditions": "for Incidence: from 10 days before immunization, 25 days monitoring; for CDI / Day of Onset / Peak Severity: mean ± SD; for Peak Severity: score scale 0-5"}, "[2]": {"assay": "Body weight monitoring (weight loss and toxicity)", "method": "Beginning 10 days prior to immunization, mice were fed a purified 0.87% calcium diet delivering the indicated doses of either 25(OH)D3 or 1,25(OH)2D3. Treatment continued for the duration of the experiment. (A) Average clinical EAE scores were determined daily for vehicle, 25(OH)D3, and 1,25(OH)2D3-treated mice (n=15-17). (B) Mice were weighed weekly (±SD) throughout the study to monitor weight loss and toxicity. (C) Serum calcium levels (±SD) were determined at the end of the experiment using a clinical chemistry analyzer. (D) Serum 25(OH)D3 levels (±SD) were determined at the termination of the experiment. *P<0.05 compared to control group. Vitamin D toxicity is known to cause weight loss and a dramatic rise in serum calcium levels. To assess the effect of UV treatment on these parameters, mice were weighed at selected time intervals throughout the study, and serum calcium levels were determined at the termination of the experiment. […] Furthermore, there were no detected difference in serum calcium levels at either the end of the UVB-pretreatment period (data not shown) or at the termination of the experiment (FIG. 1C). In addition, serum 25(OH)D3 levels were determined both at the end of the UVB-pretreatment period and at the termination of the experiment. […] Corresponding levels of the 5.0 kJ/m^2 group remained elevated at the termination of the experiment."}, "[3]": {"assay": "Analysis of serum calcium levels", "conditions": "end of experiment, vehicle 10.1 mg/dl", "method": "Blood samples were collected at the termination of the experiments and spun at 6000 rpm (2938 g) for 15 min, followed by a second spin at 14000 rpm (16883 g) for 1 min. Serum calcium levels were determined using the calcium L3K reagent (Genzyme Diagnostics, Charlottetown, PE Canada) and the ABX Pentra 400 clinical chemistry analyzer (Horiba-ABX Diagnostics, Irvine, Calif.)."}, "[4]": {"assay": "Analysis of serum 25(OH)D3 levels (125I-radioimmunological assay)", "conditions": "dietary administration 10, 500, 1000 μg/kg per day; termination of the experiment", "method": "Blood samples were collected at selected time points throughout the experiment. Red blood cells were removed through two successive centrifugation steps as described above. Serum 25(OH)D3 levels were determined using a ^125I-radioimmunological assay following the manufacturer's instructions (DiaSorin, Stillwater, Minn.). Samples above the range of the standard curve were diluted prior to analysis. Radioactivity was quantified using a Cobra 5002 gamma scintillation counter (PerkinElmer, Shelton, Conn.)."}, "[5]": {"conditions": "2.5 μg/kg per day in purified diet"}, "[6]": {"conditions": "10 μg/kg per day in purified diet"}, "[7]": {"conditions": "500 μg/kg per day in purified diet"}, "[8]": {"conditions": "1000 μg/kg per day in purified diet"}}, "note": "Marks after values point to notes of the source that are not given here.", "data": [{"smiles": "C=C1/C(=C\\C=C2/CCC[C@]3(C)[C@@H]([C@H](C)CCCC(C)(C)O)CC[C@@H]23)C[C@@H](O)C[C@@H]1O", "note": "[1,25(OH)2D3, 1α,25-dihydroxyvitamin D3]", "values": [{"measurement": "Induction of EAE", "setting": "[1]; 2.5 μg/kg per day", "value": "prevented the induction of EAE"}, {"measurement": "Incidence", "setting": "[1]; [5]", "value": "35% (6/17)†"}, {"measurement": "CDI", "setting": "[1]; [5]", "value": "4 ± 7"}, {"measurement": "Day of Onset", "setting": "[1]; [5]", "value": "20 ± 3"}, {"measurement": "Peak Severity", "setting": "[1]; [5]", "value": "2.3 ± 0.6"}, {"measurement": "Clinical signs of EAE", "setting": "[1]; pilot studies, 2.5 μg/kg per day (data not shown)", "value": "dramatic suppression"}, {"measurement": "Weight of the mice at the termination of the study", "setting": "[2]; mouse, in vivo", "value": "significant decrease"}]}, {"smiles": "C=C1CC[C@H](O)C/C1=C/C=C1\\CCC[C@]2(C)[C@@H]([C@H](C)CCCC(C)(C)O)CC[C@@H]12", "note": "[25(OH)D3, 25-hydroxyvitamin D3]", "values": [{"measurement": "Effect on incidence, onset, severity, or progression of EAE", "setting": "[1]; 10 μg/kg per day", "value": "no significant effect"}, {"measurement": "Incidence", "setting": "[1]; [6]", "value": "88% (15/17)"}, {"measurement": "CDI", "setting": "[1]; [6]", "value": "23 ± 16"}, {"measurement": "Day of Onset", "setting": "[1]; [6]", "value": "14 ± 3"}, {"measurement": "Peak Severity", "setting": "[1]; [6]", "value": "2.9 ± 0.9"}, {"measurement": "Clinical EAE scores", "setting": "[1]; 500 μg/kg per day", "value": "slight suppression"}, {"measurement": "Incidence", "setting": "[1]; [7]", "value": "82% (14/17)"}, {"measurement": "CDI", "setting": "[1]; [7]", "value": "19 ± 12"}, {"measurement": "Day of Onset", "setting": "[1]; [7]", "value": "16 ± 4"}, {"measurement": "Peak Severity", "setting": "[1]; [7]", "value": "2.7 ± 0.6"}, {"measurement": "Suppression of EAE", "setting": "[1]; 1000 μg/kg per day", "value": "modest suppression"}, {"measurement": "Incidence", "setting": "[1]; [8]", "value": "82% (14/17)"}, {"measurement": "CDI", "setting": "[1]; [8]", "value": "17 ± 11"}, {"measurement": "Day of Onset", "setting": "[1]; [8]", "value": "16 ± 3"}, {"measurement": "Peak Severity", "setting": "[1]; [8]", "value": "2.6 ± 0.6"}, {"measurement": "Serum calcium levels", "setting": "[3]; 10 μg/kg per day in diet", "value": 9.9, "unit": "mg/dL"}, {"measurement": "Serum calcium levels", "setting": "[3]; 500 μg/kg per day in diet", "value": 12.9, "unit": "mg/dL"}, {"measurement": "Serum calcium levels", "setting": "[3]; 1000 μg/kg per day in diet", "value": 14.2, "unit": "mg/dL"}, {"measurement": "Weight of the mice at the termination of the study", "setting": "[2]; 1000 μg/kg per day in diet", "value": "significant decrease"}, {"measurement": "Serum 25(OH)D3 levels", "setting": "[4]", "value": "dose-dependent increase"}]}]}
